Laboratory results published in US8729110B1, “2-thio-1,3,4-oxadiazoles derivatives as sphingosine-1 phosphate receptors modulators” (Allergan, Inc., priority 2012, dated 2014).

What follows are compounds tested against T1, human S1P1 receptor (Homo sapiens, UniProt P21453) (assay: GTP γ35S binding assay for S1P1 activity). Details: activity potency, S1P1 receptor from GTP γ35S binding; 5 μg membrane protein; test compounds 0.08 to 5,000 nM; 30 min at 25° C.
T1 construct: expressed in transfected cells; membranes used
Format: biochemical
Description: Compounds were synthesized and tested for S1P1 activity using the GTP γ^35S binding assay. These compounds may be assessed for their ability to activate or block activation of the human S1P1 receptor in cells stably expressing the S1P1 receptor.
GTP γ^35S binding was measured in the medium containing (mM) HEPES 25, pH 7.4, MgCl2 10, NaCl 100, dithitothreitol 0.5, digitonin 0.003%, 0.2 nM GTP γ^35S, and 5 μg membrane protein in a volume of 150 μl. Test compounds were included in the concentration range from 0.08 to 5,000 nM unless indicated otherwise. Membranes were incubated with 100 μM 5′-adenylylimmidodiphosphate for 30 min, and subsequently with 10 μM GDP for 10 min on ice. Drug solutions and membrane were mixed, and then reactions were initiated by adding GTP γ^35S and continued for 30 min at 25° C. Reaction mixtures were filtered over Whatman GF/B filters under vacuum, and washed three times with 3 mL of ice-cold buffer (HEPES 25, pH7.4, MgCl2 10 and NaCl 100). Filters were dried and mixed with scintillant, and counted for ^35S activity using a β-counter. Agonist-induced GTP γ^35S binding was obtained by subtracting that in the absence of agonist. Binding data were analyzed using a non-linear regression method. In case of antagonist assay, the reaction mixture contained 10 nM […] in the presence of test antagonist at concentrations ranging from 0.08 to 5000 nM.

T1 sequence (P21453 whole entry): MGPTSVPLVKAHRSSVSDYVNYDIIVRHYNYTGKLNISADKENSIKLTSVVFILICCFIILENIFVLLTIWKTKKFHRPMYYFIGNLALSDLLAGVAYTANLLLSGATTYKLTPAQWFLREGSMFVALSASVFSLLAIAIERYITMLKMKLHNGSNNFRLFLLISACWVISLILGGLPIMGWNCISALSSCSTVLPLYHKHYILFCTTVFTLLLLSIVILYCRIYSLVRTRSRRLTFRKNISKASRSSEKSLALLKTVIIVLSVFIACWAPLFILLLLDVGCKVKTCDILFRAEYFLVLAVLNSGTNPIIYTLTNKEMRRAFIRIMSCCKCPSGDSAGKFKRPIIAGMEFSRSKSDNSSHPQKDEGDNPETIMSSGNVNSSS

Compound | EC50
CC(Sc1nnc(-c2ccc(CNCCCP(=O)(O)O)cc2)o1)c1cccc([N+](=O)[O-])c1 (centres unmarked) [Compound 17, (3-{[4-(5-{[1-(3-nitrophenyl)ethyl]thio}-1,3,4-oxadiazol-2-yl)benzyl]amino}propyl)phosphonic acid] | 0.382 µM
Cc1ccc(-c2nnc(SCc3ccc(CNCCCP(=O)(O)O)cc3)o2)cc1C [(3-{[4-({[5-(3,4-dimethylphenyl)-1,3,4-oxadiazol-2-yl]thio}methyl)benzyl]amino}propyl)phosphonic acid] | 0.805 µM
Cc1ccc(-c2nnc(SC(C)c3ccc(CNCCCP(=O)(O)O)cc3)o2)cc1C (centres unmarked) [(3-{[4-(1-{[5-(3,4-dimethylphenyl)-1,3,4-oxadiazol-2-yl]thio}ethyl)benzyl]amino}propyl)phosphonic acid] | 0.888 µM
O=[N+]([O-])c1cccc(CSc2nnc(-c3ccc(CNCCCP(=O)(O)O)cc3)o2)c1 [Compound 9, {3-[(4-{5-[(3-nitrobenzyl)thio]-1,3,4-oxadiazol-2-yl}benzyl)amino]propyl}phosphonic acid] | 1.81 µM
Cc1ccc(CSc2nnc(-c3ccc(CNCCCP(=O)(O)O)cc3)o2)cc1C [Compound 10, {3-[(4-{5-[(3,4-dimethylbenzyl)thio]-1,3,4-oxadiazol-2-yl}benzyl)amino]propyl}phosphonic acid] | 0.097 µM
Cc1cc(CNCCCP(=O)(O)O)ccc1-c1nnc(SC(C)c2cccc([N+](=O)[O-])c2)o1 (centres unmarked) [Compound 6, (3-{[3-methyl-4-(5-{[1-(3-nitrophenyl)ethyl]thio}-1,3,4-oxadiazol-2-yl)benzyl]amino}propyl)phosphonic acid] | 0.231 µM
O=P(O)(O)CCCNCc1ccc(-c2nnc(SCc3cccc(Cl)c3F)o2)cc1 [Compound 1, {3-[(4-{5-[(3-chloro-2-fluorobenzyl)thio]-1,3,4-oxadiazol-2-yl}benzyl)amino]propyl}phosphonic acid] | 0.853 µM
CCc1cc(CNCCCP(=O)(O)O)sc1-c1nnc(SC(C)c2cccc([N+](=O)[O-])c2)o1 (centres unmarked) [Compound 26, [3-({[4-ethyl-5-(5-{[1-(3-nitrophenyl)ethyl]sulfanyl}-1,3,4-oxadiazol-2-yl)thiophen-2-yl]methyl}amino)propyl]phosphonic acid] | 1.26 µM
Cc1cc(CNCCCP(=O)(O)O)sc1-c1nnc(SC(C)c2cccc([N+](=O)[O-])c2)o1 (centres unmarked) [Compound 27, [3-({[4-methyl-5-(5-{[1-(3-nitrophenyl)ethyl]sulfanyl}-1,3,4-oxadiazol-2-yl)thiophen-2-yl]methyl}amino)propyl]phosphonic acid] | 0.2 µM
CCC(Sc1nnc(-c2ccc(CNCCCP(=O)(O)O)cc2C)o1)c1cccc([N+](=O)[O-])c1 (centres unmarked) [Compound 7, (3-{[3-methyl-4-(5-{[1-(3-nitrophenyl)propyl]thio}-1,3,4-oxadiazol-2-yl)benzyl]amino}propyl)phosphonic acid] | 0.05 µM

The next compounds have a lower EC50 than those just listed; values first:

EC50 | Compound
0.0018 µM | CCCC(Sc1nnc(-c2ccc(CNCCCP(=O)(O)O)cc2)o1)c1cccc(Cl)c1F (centres unmarked) [Compound 15, (3-{[4-(5-{[1-(3-chloro-2-fluorophenyl)butyl]thio}-1,3,4-oxadiazol-2-yl)benzyl]amino}propyl)phosphonic acid]
0.03 µM | CCc1cc(CNCCCP(=O)(O)O)ccc1-c1nnc(SC(C)c2cccc([N+](=O)[O-])c2)o1 (centres unmarked) [Compound 11, (3-{[3-ethyl-4-(5-{[1-(3-nitrophenyl)ethyl]thio}-1,3,4-oxadiazol-2-yl)benzyl]amino}propyl)phosphonic acid]
0.04 µM | CCC(Sc1nnc(-c2ccc(CNCCCP(=O)(O)O)cc2)o1)c1cccc([N+](=O)[O-])c1 (centres unmarked) [Compound 16, (3-{[4-(5-{[1-(3-nitrophenyl)propyl]thio}-1,3,4-oxadiazol-2-yl)benzyl]amino}propyl)phosphonic acid]
0.0015 µM | CCCC(Sc1nnc(-c2ccc(CNCCCP(=O)(O)O)cc2)o1)c1ccccc1 (centres unmarked) [Compound 14, {3-[(4-{5-[(1-phenylbutyl)thio]-1,3,4-oxadiazol-2-yl}benzyl)amino]propyl}phosphonic acid]
